Laboratory results published in patent publication US20240327382A1 (ALMAC DISCOVERY LIMITED, priority 2021, published 2024).

Target: T1, Full-length USP19 (Homo sapiens, UniProt O94966)
T1 construct: Full-length USP19 was purchased from Boston Biochem (E-576); purchased Boston Biochem E-576
T1 sequence (O94966 1-1318): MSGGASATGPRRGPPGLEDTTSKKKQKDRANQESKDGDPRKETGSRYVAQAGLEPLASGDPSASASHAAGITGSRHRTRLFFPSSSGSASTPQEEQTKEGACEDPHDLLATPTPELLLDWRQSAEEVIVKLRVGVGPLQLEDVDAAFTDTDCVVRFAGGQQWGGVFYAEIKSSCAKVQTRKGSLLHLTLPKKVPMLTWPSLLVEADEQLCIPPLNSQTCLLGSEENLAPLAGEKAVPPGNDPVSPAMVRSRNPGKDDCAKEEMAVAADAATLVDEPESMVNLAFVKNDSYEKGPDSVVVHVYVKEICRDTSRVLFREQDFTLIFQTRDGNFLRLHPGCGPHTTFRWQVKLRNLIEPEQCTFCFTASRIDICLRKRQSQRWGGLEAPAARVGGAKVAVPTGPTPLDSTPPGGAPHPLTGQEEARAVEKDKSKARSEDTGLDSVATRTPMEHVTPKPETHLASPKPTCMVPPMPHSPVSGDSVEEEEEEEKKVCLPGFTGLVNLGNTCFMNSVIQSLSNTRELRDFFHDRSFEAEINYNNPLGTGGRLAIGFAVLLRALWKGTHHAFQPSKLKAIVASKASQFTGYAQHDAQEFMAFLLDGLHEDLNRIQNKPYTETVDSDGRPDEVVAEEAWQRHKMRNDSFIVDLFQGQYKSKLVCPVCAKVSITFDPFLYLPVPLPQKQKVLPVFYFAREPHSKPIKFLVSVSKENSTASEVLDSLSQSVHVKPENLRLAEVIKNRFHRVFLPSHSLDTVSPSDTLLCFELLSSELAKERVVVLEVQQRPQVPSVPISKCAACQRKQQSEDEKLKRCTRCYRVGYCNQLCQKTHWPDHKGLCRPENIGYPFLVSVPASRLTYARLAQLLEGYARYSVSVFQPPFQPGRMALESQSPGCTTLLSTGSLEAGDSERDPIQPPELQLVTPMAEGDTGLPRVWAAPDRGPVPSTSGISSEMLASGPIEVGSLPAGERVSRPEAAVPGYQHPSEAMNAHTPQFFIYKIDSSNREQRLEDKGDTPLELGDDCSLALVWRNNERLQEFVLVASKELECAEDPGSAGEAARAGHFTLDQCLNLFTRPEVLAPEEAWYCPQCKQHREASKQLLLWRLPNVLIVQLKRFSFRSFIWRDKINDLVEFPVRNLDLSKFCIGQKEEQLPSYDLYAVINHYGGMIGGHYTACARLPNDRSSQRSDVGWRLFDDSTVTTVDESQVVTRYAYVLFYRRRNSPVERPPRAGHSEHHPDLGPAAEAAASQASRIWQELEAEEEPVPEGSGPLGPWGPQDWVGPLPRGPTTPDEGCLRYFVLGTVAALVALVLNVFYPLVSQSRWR
Assay: USP19 fluorescence polarisation (FP) assay, Ubiquitin-Lys-TAMRA substrate
Format: biochemical
Conditions: average of at least two duplicate experiments
Protocol: USP19 activity was determined in a fluorescence polarisation (FP) homogeneous assay using the isopeptide Ubiquitin-Lys-TAMRA substrate (either AUB-101, Almac Sciences Scotland Limited, or U-558, Boston Biochem, both of which gave identical results). Full-length USP19 was purchased from Boston Biochem (E-576). Unless otherwise stated, all other reagents were purchased from Sigma. Enzymatic reactions were conducted in black flat bottom polystyrene 384-well plates (Nunc) and 30 μL total volume. USP19 (2.5 nM, 10 μL) was incubated in assay buffer (50 mM HEPES (pH 7.4), 150 mM NaCl, 5 mM DTT, 0.05% BSA (w/v), 0.05% CHAPS) in the presence or absence of inhibitor (10 μL). Inhibitors were stored as 10 mM DMSO stocks in an inert environment (low humidity, dark, low oxygen, rt) using the StoragePod® system (Roylan Developments) and serial dilutions were prepared in buffer just prior to the assay (from 200 μM to 2 μM, 8-18 data point curve). Following incubation at RT for 30 min, the enzymatic reactions were initiated by dispensing the Ub substrate (500 nM, 10 μL). FP was measured every 15 min over a period of 90 min (within the linear range of the assay) using a Synergy 4 plate reader (BioTek) exciting at 530 nm and measuring the amount of parallel and perpendicular light at 575 nm. The FP signal was subsequently normalised to the no compound control. Data were plotted and fitted, and the concentrations resulting in 50% inhibition (IC50) were calculated using the non-linear regression curve fitting model using GraphPad (Prism). IC50 values for the inhibitors of the invention are compiled in Tables 1 and 3 and represent the average of at least two duplicate experiments.

Structure (SMILES)	IC50 [nM]
N[C@H]1C[C@@H](c2ccccc2)N(C(=O)N2CC[C@@H](Cn3ccc(-c4ccccc4)cc3=O)C3(CCCC3)C2)C[C@H]1F (racemic) [Example 85, 1-(((R)-7-((2S,4S,5R)-4-Amino-5-fluoro-2-phenylpiperidine-1-carbonyl)-7-azaspiro[4.5]decan-10-yl)methyl)-4-phenylpyridin-2(1H)-one and 1-(((R)-7-((2S,4S,5S)-4-Amino-5-fluoro-2-phenylpiperidine-1-carbonyl)-7-azaspiro[4.5]decan-10-yl)methyl)-4-phenylpyridin-2(1H)-one]	< 10
CN[C@@H]1CCN(C(=O)N2CC[C@@H](CN3CCC(c4ccccc4OC)=CC3=O)C3(CCCC3)C2)[C@H](c2ccc(F)cc2F)C1 (racemic) [Example 127, 1-(((R)-7-((2S,4R)-2-(2,4-Difluorophenyl)-4-(methylamino)piperidine-1-carbonyl)-7-azaspiro[4.5]decan-10-yl)methyl)-4-(2-methoxyphenyl)-5,6-dihydropyridin-2(1H)-one and 1-(((S)-7-((2S,4R)-2-(2,4-Difluorophenyl)-4-(methylamino)piperidine-1-carbonyl)-7-azaspiro[4.5]decan-10-yl)methyl)-4-(2-methoxyphenyl)-5,6-dihydropyridin-2(1H)-one]	< 10
N[C@@H]1CC[C@@H](c2ccccc2)N(C(=O)N2CC[C@@H](Cn3cnc(-c4ccccc4)cc3=O)C3(CCCC3)C2)C1 (racemic) [Example 188, 3-(((R)-7-((2S,5R)-5-Amino-2-phenylpiperidine-1-carbonyl)-7-azaspiro[4.5]decan-10-yl)methyl)-6-phenylpyrimidin-4(3H)-one and 3-(((R)-7-((2R,5S)-5-amino-2-phenylpiperidine-1-carbonyl)-7-azaspiro[4.5]decan-10-yl)methyl)-6-phenylpyrimidin-4(3H)-one]	10 to 100
O=C(N1CC=C(Cn2cnc(-c3ccccc3)cc2=O)C2(CCCC2)C1)N1CCNC[C@H]1c1ccccc1 (single isomer, unassigned) [Example 2]	10 to 100
O=C(N1CC[C@H](Cn2cnc(-c3ccccc3)cc2=O)C2(CCCC2)C1)N1CCNC[C@H]1c1ccccc1 (single isomer, unassigned) [Example 13]	100 to 1000
O=C(N1CC[C@@H](Cn2cnc(-c3ccccc3)cc2=O)C2(CCCC2)C1)N1CCNC[C@H]1c1ccccc1 (single isomer, unassigned) [Example 14]	< 10
O=C(N1CC[C@H](Cn2ccc(-c3ccccc3)cc2=O)C2(CCCC2)C1)N1CCNC[C@H]1c1ccccc1 (single isomer, unassigned) [Example 15]	1000 to 20000
O=C(N1CC[C@@H](Cn2ccc(-c3ccccc3)cc2=O)C2(CCCC2)C1)N1CCNC[C@H]1c1ccccc1 (single isomer, unassigned) [Example 16]	< 10
O=C(N1CCC(Cn2cnc(-c3ccccc3)cc2=O)CC1)N1CCNC[C@H]1c1ccccc1 [Example 1, (R)-6-Phenyl-3-((1-(2-phenylpiperazine-1-carbonyl)piperidin-4-yl)methyl)pyrimidin-4(3H)-one]	100 to 1000
C[C@H](CC(F)(F)F)C(=O)N1CCC(Cn2cnc(-c3ccccc3)cc2=O)C2(CCCC2)C1 (stereo partly drawn) [Example 4, 6-Phenyl-3-((7-((R)-4,4,4-trifluoro-2-methylbutanoyl)-7-azaspiro[4.5]decan-10-yl)methyl)pyrimidin-4(3H)-one]	1000 to 20000
C[C@H](CC(F)(F)F)C(=O)N1CCC(Cn2ccc(-c3ccccc3)cc2=O)C2(CCCC2)C1 (stereo partly drawn) [Example 5, 4-Phenyl-1-((7-((R)-4,4,4-trifluoro-2-methylbutanoyl)-7-azaspiro[4.5]decan-10-yl)methyl)pyridin-2(1H)-one]	1000 to 20000
O=C(N1CCC(Cn2ccc(-c3ccccc3)cc2=O)CC1)N1CCNC[C@H]1c1ccccc1 [Example 6, (R)-4-Phenyl-1-((1-(2-phenylpiperazine-1-carbonyl)piperidin-4-yl)methyl)pyridin-2(1H)-one]	100 to 1000
